Source: patent US8975015B2, “Antimicrobial compounds” (priority 2009, dated 2015)
Values after ≈ are worked out from the molar mass of the structure shown. Like-named read-outs stand apart in the source and are kept apart here.

Columns and labels:
[1] = tested on: Mycobacterium tuberculosis (replicating TB); test: microbe, parasite or virus in culture; assay type: cell-based; conditions: Mycobacterium tuberculosis, replicating TB, read-out: MABA MIC
non-replicating TB = test: microbe, parasite or virus in culture; assay type: cell-based, Mycobacterium tuberculosis; conditions: Mycobacterium tuberculosis, read-out: LORA MIC
[2] = assay type: in vitro ADME; conditions: simulated gi fluid
[3] = assay type: in vitro ADME
Procedure: Compound P1 was also tested for stability in simulated intestinal fluid.

[4] = mouse, microsomes
M. smegmatis = test: MIC against M. smegmatis; assay type: cell-based; conditions: Mycolicibacterium smegmatis
[5] = tested on: cultured kidney cells from the African Green monkey; test: cells; assay type: cell-based; conditions: Chlorocebus sabaeus
[6] = human, microsomes

## O=C1C=Cc2nocc2/C1=C1/Nc2cc(Cl)ccc2C1=O [Example 2, 4-(6-chloro-3-oxoindolin-2-ylidene)benzo[c]isoxazol-5(4H)-one]
[1]; 8-0.03 μM test concentration
  MIC: 1.9 µM (≈ 0.568 µg/mL)
[1]; 32-0.2 μM test concentration
  MIC: 1.92 µM (≈ 0.573 µg/mL)

## O=C1C=Cc2nocc2/C1=C1/Nc2ccc(Cl)cc2C1=O [Example 3, 4-(5-chloro-3-oxoindolin-2-ylidene)benzo[c]isoxazol-5(4H)-one]
non-replicating TB; non-replicating TB
  MIC: 0.83 µM (≈ 0.248 µg/mL)
[1]; 8-0.03 μM test concentration
  MIC: 0.82 µM (≈ 0.245 µg/mL)
[1]; 32-0.2 μM test concentration
  MIC: 0.93 µM (≈ 0.278 µg/mL)

## O=C1C=Cc2nocc2/C1=C1/Nc2ccccc2C1=O [Example P1, 4-(3-oxoindolin-2-ylidene)benzo[c]isoxazol-5(4H)-one]
non-replicating TB; non-replicating TB
  MIC: 0.48 µM (≈ 0.127 µg/mL)
[2]; 0 h
  % P1 remaining: 100%
[2]; 5 min
  % P1 remaining: 99.2%
[2]; 25 min
  % P1 remaining: 99.6%
[2]; 0.75 h
  % P1 remaining: 101.3%
[2]; 65 min
  % P1 remaining: 99.6%
[2]; 80 min
  % P1 remaining: 97.0%
[2]; 100 min
  % P1 remaining: 101.6%
[2]; 2 h
  % P1 remaining: 102.1%
[2]; 140 min
  % P1 remaining: 100.2%
[3]; 0 min
  % P1: 100%
[3]; 5 min
  % P1: 99.9%
[3]; 25 min
  % P1: 95.4%
[3]; 45 min
  % P1: 97.7%
[3]; 65 min
  % P1: 92.1%
[3]; 85 min
  % P1: 86.2%
[3]; 125 min
  % P1: 86.8%
[3]; 145 min
  % P1: 83.5%
[4]
  half-life: about 3 or 4 minutes
[1]
  MIC: 0.49 µM (≈ 0.129 µg/mL)
M. smegmatis
  MIC: 4.05 µg/mL (≈ 15.3 µM)
[5]; African Green monkey kidney cells
  IC50: > 50 µg/mL
[5]; Table 7, reaction products of T4MO isoform I100V with feedstock
  IC50: 20.8 µg/mL (≈ 78.8 µM)
[6]
  half-life: about 7 or 8 minutes

## NNC(=O)c1ccncc1 [Isoniazid, reference compound]
non-replicating TB
  MIC: > 128 µM
[1]
  MIC: 0.56 µM (≈ 0.0768 µg/mL)

## CO[C@H]1/C=C/O[C@@]2(C)Oc3c(C)c(O)c4c(O)c(c(/C=N/N5CCN(C)CC5)c(O)c4c3C2=O)NC(=O)/C(C)=C\C=C\[C@H](C)[C@H](O)[C@@H](C)[C@@H](O)[C@@H](C)[C@H](OC(C)=O)[C@@H]1C [Rifampin, reference compound]
non-replicating TB
  MIC: 1.34 µM (≈ 1.1 µg/mL)
[1]
  MIC: 0.06 µM (≈ 0.0494 µg/mL)
